# Results reported in patent US20250387481A1, “PRE-TREATED T CELLS FOR USE AS A MEDICAMENT” (STICHTING HET NEDERLANDS KANKER INSTITUUT-ANTONI VAN …, priority 2022, published 2025).
# Key:
# MMTV-PyMT organoids = test: Co-culture of pre-treated splenic T cells with MMTV-PyMT organoids (MTT, cleaved-caspase 3); type: cell-based, mouse; settings: CD4 or CD8 T cells pre-treated with docetaxel
# Description: Preparation of T cells: T cells isolated from mouse spleens or from mouse mammary tumors were cultured in Roswell Park Memorial Institute (RPMI) 1640 Medium (Thermo Fisher Scientific, Cat. No. 21875034) containing FBS (10%, Thermo Fisher Scientific, Cat. No. A4766801), Penicillin/streptomycin (10,000 U/ml; Thermo Fisher Scientific, Cat. No. 15140-122), IL2 (Thermo Fisher Scientific, Cat. No. PMC0025), β-mercaptoethanol (50 μmol/L) and Ultraglutamine (2 mmol/L, Lonza, Cat. No. BE17-605E/U1). T cells were kept in 20% O2, 5% CO2 and at 37 degrees Celsius
# In order to assess the direct effects of docetaxel on T cell activation for T cells isolated from the spleen, T cells were cultured in the absence of CD3 and CD28 antibodies.
# For T cells isolated from mouse mammary tumors, T cells were directly co-cultured with tumor organoids after FACS isolation. For T cells isolated from the spleen, T cells were treated for 72 h with PBS or with docetaxel (docetaxel 10 nmol/L), in the presence or absence of an LCKi (10 μmol/L, Merck Millipore, Cat. No. 213743-31-8). To evaluate the docetaxel-specificity of our observations, T cells were treated with paclitaxel 10 nmol/L or carboplatin 50 μmol/L for 72 h. […]
# Following co-culture, medium was removed, and cultures were washed in PBS to remove T cells. […] Plates were read with a 565 nm wavelength. […]
# tumor-reactive T cells = test: Tumor recognition assay and viability of patient-derived tumor-reactive T cells; type: cell-based, human; settings: 10 nmol/L docetaxel
# Description: Tumor-reactive patient T cells were generated by co-culturing PBMCs and autologous tumor organoids as described previously (Dekkers, J. F., et al. Nat Protoc, 2021. 16(4): p. 1936-1965; Cattaneo, C. M., et al. Nat Protoc, 2020. 15(1): p. 15-39). In brief, following incubation with 200 ng/ml IFNγ for 24 hr, patient tumor organoids were dissociated into single cell suspensions using TripLE Express. Tumor organoid cells were mixed with patient PBMCs ([…]) and […] were seeded in each well of a U-bottom 96-well plate pre-coated with 5 μg/ml αCD28 antibody. Co-culture medium consisted of RPMI 1640 supplemented with 2 mmol/L Ultraglutamine I, penicillin/streptomycin, 10% human AB serum, 150 U/ml rh-IL-2 and 20 μg/ml αPD1 blocking antibody (Merus, The Netherlands). Medium, IL-2 and αPD1 were refreshed every 2-3 days. PBMCs were harvested and re-stimulated every 7 days by re-plating with fresh tumor organoid cells. After two weeks of co-culture, PBMCs were harvested and used for downstream analysis or cryopreserved for later use.
# Tumor-reactive PBMC were thawed in pre-warmed T cells medium and incubated for 15 minutes with 25 U/mL Benzonase. After washing, cells were re-suspended at 2−3×10^6 cells/ml in T cell medium and cultured overnight at 37° C. T cell medium consisted of RPMI 1640 supplemented with 2 mmol/L Ultraglutamine I, penicillin/streptomycin, 10% human AB serum and 150 U/ml rh-IL-2. The day after, PBMC were incubated with (or without) 10 nmol/L docetaxel for 48 h.
# For evaluation of tumor reactivity, […] were re-stimulated with autologous tumor organoids or autologous healthy organoids (isolated from Geltrex for 48 h and stimulated with 200 ng/ml IFNγ for 24 h, as described in (Dekkers, J. F., et al. Nat Protoc, 2021. 16(4): p. 1936-1965; Cattaneo, C. M., et al. Nat Protoc, 2020. 15(1): p. 15-39; Voorwerk, L., et al. Nat Med, 2019. 25(6): p. 920-928) at a 2:1 effector: target ratio and seeded in αCD28 coated plates in the presence of 20 μg/ml αPD1 and co-cultured for 24 hours. At the end of the 24 h, 50 μl of the assay supernatant were taken on the side and used for the quantification of the secreted IFNγ. To this purpose, the Human IFN-γ Flex Set (BD bioscience) was used in accordance with the manufacturer's instructions. For the evaluation of CD137 expression, at the end of the 24 h, cells were washed twice in FACS buffer and stained with the following antibodies: αCD3 PerCPCy5.5, αCD4 FITC, αCD8 BV421, αCD137 APC, and near IR viability dye for 30 minutes at 4° C. in the dark. […] Cells were then washed twice with FACS buffer and recorded with a Becton Dickinson Fortessa or LSRII flow cytometer.
smiles,measurement,setting,value
CC(=O)O[C@@]12CO[C@@H]1C[C@H](O)[C@@]1(C)C(=O)[C@H](O)C3=C(C)[C@@H](OC(=O)[C@H](O)[C@@H](NC(=O)OC(C)(C)C)c4ccccc4)C[C@@](O)([C@@H](OC(=O)c4ccccc4)[C@H]21)C3(C)C [docetaxel],T cell-mediated killing in presence or absence of LCKi,MMTV-PyMT organoids,TCR-independent increase of T cell-mediated killing
same,IFNγ secretion by T cells,tumor-reactive T cells,did not enhance IFNγ secretion
same,T cell viability,tumor-reactive T cells,did not significantly alter T cell viability
same,ability of T cells to recognize tumor organoids (CD137),tumor-reactive T cells,did not increase
same,"expression of CD137, CD107 or PD1",tumor-reactive T cells,did not increase
